# Reference: patent EP1816136A1, “GPR7-SELECTIVE LIGAND AND USE THEREOF” (BANYU PHARMACEUTICAL CO., LTD., priority 2004, dated 2006)
# Non-standard residues stand in square brackets, D forms with d. Residues, ends and D or L forms follow the SMILES beside them. 3Abz = Nc1cccc(C(=O)O)c1; 4Abz = Nc1ccc(C(=O)O)cc1; 2Abz = Nc1ccccc1C(=O)O; Ava = NCCCCC(=O)O
# Tests used:
# [1] = target: T1, GPR7 (Homo sapiens, UniProt P48145); test: Binding inhibition test with [125I]-[Phe2]-hNPW(1-23), GPR7 membrane preparation
# T1 construct: expressed in transfected cells; host or cells: HEK293/CRE-BLA cells (AURORA), expression vector pIRES-hygro (Clontech)
# T1 sequence (P48145 1-328): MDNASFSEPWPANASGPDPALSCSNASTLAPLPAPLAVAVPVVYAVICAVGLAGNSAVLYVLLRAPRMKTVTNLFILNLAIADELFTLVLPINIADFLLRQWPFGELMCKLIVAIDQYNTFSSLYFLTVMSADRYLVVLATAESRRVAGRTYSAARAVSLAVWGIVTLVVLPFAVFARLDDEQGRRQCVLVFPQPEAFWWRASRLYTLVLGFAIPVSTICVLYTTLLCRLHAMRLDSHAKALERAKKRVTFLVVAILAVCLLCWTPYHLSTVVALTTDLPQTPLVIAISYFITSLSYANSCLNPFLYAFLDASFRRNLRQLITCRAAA
# Description: (§1) One nmol of [Phe2]-hNPW(1-23) (prepared in Synthesis Example 19) was dissolved in 5 µL of anhydrous DMSO, and the solution was mixed with 0.1M nickel chloride. Then, the mixture was mixed with 10 µL of a 0.00 1 % aqueous solution of hydrogen peroxide, 10 µL of an enzyme solution (lactoperoxidase (Sigma) adjusted to 10 µg/mL with a 0.1M HEPES buffer solution), and 37 Mbq/10 µL of Iodine-125 (Amersham), whereafter the resulting mixture was reacted for 60 minutes at room temperature. The reaction was terminated with the addition of 10 µL of 1% sodium azide, and then a radiolabeled peptide fraction was collected by a PD-10 gel filtration column (Amersham) to obtain [^125I]-[Phe2]-hNPW(1-23).
# (§2) A cDNA sequence coding for human GPR7 or GPR8 [see Genomics, vol. 28, p. 84 (1995)] was amplified by the PCR method, and cloned using the expression vector pIRES-hygro (Clontech). The resulting expression vector was transfected into HEK293/CRE-BLA cells (AURORA) using the cationic lipid method [see Proceedings of the National Academy of Sciences of the United States of America, vol. 84, p. 7413 (1987)] to obtain GPR7 or GPR8 expression cells.
# (§3) A membrane preparation prepared from the cells expressing GPR7 or GPR8 was incubated for 1 hour at room temperature in an assay buffer solution (25 mM Tris buffer solution, 150 mM NaCl, pH 7.4) together with a test compound and 28,000 cpm of [^125I]-[Phe2]-hNPW(1-23). Then, the system was filtered through the glass filter GF/C. After washing with 25 mM Tris buffer solution (pH 7.4), radioactivity on the glass filter was measured. Nonspecific binding was measured in the presence of 1 µM hNPW (prepared in Synthesis Example 1), and the 50% inhibition concentration (IC50 value) of the test compound against [Phe2]-hNPW(1-23) specific binding was calculated [see Molecular Pharmacology, vol. 55, 1101 (1999)].
# [2] = target: T2, GPR8 (Homo sapiens, UniProt P48146); test: Binding inhibition test with [125I]-[Phe2]-hNPW(1-23), GPR8 membrane preparation
# T2 construct: expressed in transfected cells; host or cells: HEK293/CRE-BLA cells (AURORA), expression vector pIRES-hygro (Clontech)
# T2 sequence (P48146 whole entry): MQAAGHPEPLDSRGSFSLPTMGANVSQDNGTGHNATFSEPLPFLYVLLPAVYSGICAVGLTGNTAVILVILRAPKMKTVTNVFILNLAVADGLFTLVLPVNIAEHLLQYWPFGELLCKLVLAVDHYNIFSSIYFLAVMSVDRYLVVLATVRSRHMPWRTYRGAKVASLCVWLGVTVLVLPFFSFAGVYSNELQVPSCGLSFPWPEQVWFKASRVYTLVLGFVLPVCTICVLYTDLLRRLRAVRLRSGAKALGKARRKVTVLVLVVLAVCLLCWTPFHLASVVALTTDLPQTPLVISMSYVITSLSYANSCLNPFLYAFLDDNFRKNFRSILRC
# Description: as §1, §2, §3
# [3] = target: T2, GPR8; test: Measurement of activation capacity on GPR8 (CRE-BLA beta-lactamase reporter assay); format: cell-based; conditions: Table 1; HEK293/CRE-BLA cells expressing GPR8; forskolin 1 µM; 3 hours at 37°C; read-out: GPR8 (nM) EC 50
# From the text: as §2
# (§4) In accordance with the method of Zlakarmik (see Science, 1998, vol. 279, p. 84), the activity of various synthetic peptides on GPR7 or GPR8 was measured. HEK293/CRE-BLA cells which expressed GPR7 or GPR8 (prepared in (2) of Test Example 1) were washed twice with PBS(-) buffer solution (GIBCO-BRL), and then Cell-dissociation buffer (GIBCO-BRL) was added. The system was kept at 37°C for 3 minutes in a CO2 incubator, and a culture flask was tapped to liberate the cells from the flask. After the cells were harvested by centrifugation, the cells were suspended in an Opti-MEM culture medium (GIBCO-BRL) containing 0.1 % BSA (Sigma) to count the cells and prepare a cell suspension containing 8×10^5 cells/mL. To 2 µL of a DMSO solution containing each test compound with a concentration of 50 times an end concentration, 50 µL of the 0.1% BSA-containing Opti-MEM medium incorporating forskolin (Sigma) so as to have an end concentration of 1 µM was added to form a reaction solution. To this reaction solution, 50 µL of the above cell suspension was added to initiate the reaction, and the system was incubated for 3 hours at 37°C in a CO2 incubator.
# (§5) Then, using a BLA assay kit (AURORA), a coloring matter-introduced buffer solution incorporating 12 µL of Solution A [1 mM CCF2-AM/anhydrous DMSO solution], 120 µL of Solution B [100 mg/mL Pluronic 127, 0.1% acetic acid/DMSO solution], and 2 mL of Solution C [24% (w/w) PEG-400, 18% TR40/H2O] was prepared. This coloring matter-introduced buffer solution (20 µL) was added to the above-mentioned cell reaction mixture to introduce a β-lactamase substrate (CCF2-AM) into the cells. After the system was allowed to stand for 1 hour at room temperature, the fluorescence intensities of the sample at an excitation wavelength of 409 nm, at a fluorescence wavelength of 460 nm (a β-lactamase hydrolyzate of CCF), and at 530 nm (CCF) were measured. With β-lactamase activity (fluorescence intensity at 460 nm/fluorescence intensity at 530 nm) as an indicator, the activity of each of various peptides on GPR7 or GPR8 was measured, and the 50% effective concentration (EC50) of the test compound was calculated.
# [4] = target: T1, GPR7; test: Measurement of activation capacity on GPR7 (CRE-BLA beta-lactamase reporter assay); format: cell-based; conditions: Table 1; HEK293/CRE-BLA cells expressing GPR7; forskolin 1 µM; 3 hours at 37°C
# From the text: as §2, §4, §5
# [5] = Table 2, membrane preparation of cells expressing GPR7
# [6] = Table 2, membrane preparation of cells expressing GPR8
# [7] = Table 1, membrane preparation of HEK293/CRE-BLA cells expressing GPR7, 1 hour at room temperature
# [8] = Table 1, membrane preparation of HEK293/CRE-BLA cells expressing GPR8, 1 hour at room temperature
Compound,"IC50 [1, 7] [nM]","IC50 [2, 8] [nM]",EC50 [3] [nM],EC50 [4] [nM],"IC50 [1, 5] [nM]","IC50 [2, 6] [nM]"
CC(C)C[C@H](NC(=O)CNC(=O)[C@H](CO)NC(=O)[C@H](CC(C)C)NC(=O)[C@H](CC(C)C)NC(=O)CNC(=O)[C@H](C)NC(=O)[C@H](C)NC(=O)[C@H](CCCNC(=N)N)NC(=O)CNC(=O)CCCCNC(=O)c1ccccc1NC(=O)CCCCNC(=O)[C@H](CCCCN)NC(=O)[C@H](Cc1ccc(O)cc1)NC(=O)[C@@H](N)Cc1c[nH]c2ccccc12)C(N)=O [compound 13] (H-WYK[Ava][2Abz][Ava]GRAAGLLSGL-NH2),–,–,–,–,0.56,39
CC(C)C[C@H](NC(=O)CNC(=O)[C@H](CO)NC(=O)[C@H](CC(C)C)NC(=O)[C@H](CC(C)C)NC(=O)CNC(=O)[C@H](C)NC(=O)[C@H](C)NC(=O)[C@H](CCCNC(=N)N)NC(=O)CNC(=O)CCCCNC(=O)c1ccc(NC(=O)CCCCNC(=O)[C@H](CCCCN)NC(=O)[C@H](Cc2ccc(O)cc2)NC(=O)[C@@H](N)Cc2c[nH]c3ccccc23)cc1)C(N)=O [compound 15] (H-WYK[Ava][4Abz][Ava]GRAAGLLSGL-NH2),–,–,–,–,0.4,34
CC(C)C[C@H](NC(=O)CNC(=O)[C@H](CO)NC(=O)[C@H](CC(C)C)NC(=O)[C@H](CC(C)C)NC(=O)CNC(=O)[C@H](C)NC(=O)[C@H](C)NC(=O)[C@H](CCCNC(=N)N)NC(=O)CNC(=O)CCCCNC(=O)CCCCNC(=O)c1ccccc1NC(=O)[C@H](CCCCN)NC(=O)[C@H](Cc1ccc(O)cc1)NC(=O)[C@@H](N)Cc1c[nH]c2ccccc12)C(N)=O [compound 16] (H-WYK[2Abz][Ava][Ava]GRAAGLLSGL-NH2),–,–,–,–,1.3,160
CC(C)C[C@H](NC(=O)CNC(=O)[C@H](CO)NC(=O)[C@H](CC(C)C)NC(=O)[C@H](CC(C)C)NC(=O)CNC(=O)[C@H](C)NC(=O)[C@H](C)NC(=O)[C@H](CCCNC(=N)N)NC(=O)CNC(=O)CCCCNC(=O)CCCCNC(=O)c1ccc(NC(=O)[C@H](CCCCN)NC(=O)[C@H](Cc2ccc(O)cc2)NC(=O)[C@@H](N)Cc2c[nH]c3ccccc23)cc1)C(N)=O [compound 18] (H-WYK[4Abz][Ava][Ava]GRAAGLLSGL-NH2),–,–,–,–,5.6,190
CC(C)C[C@H](NC(=O)CNC(=O)[C@H](CO)NC(=O)[C@H](CC(C)C)NC(=O)[C@H](CC(C)C)NC(=O)CNC(=O)[C@H](C)NC(=O)[C@H](C)NC(=O)[C@H](CCCNC(=N)N)NC(=O)CNC(=O)c1cccc(NC(=O)CCCCNC(=O)CCCCNC(=O)[C@H](CCCCN)NC(=O)[C@H](Cc2ccc(O)cc2)NC(=O)[C@@H](N)Cc2c[nH]c3ccccc23)c1)C(N)=O [compound 11] (H-WYK[Ava][Ava][3Abz]GRAAGLLSGL-NH2),–,–,–,–,0.37,13
CC(C)C[C@H](NC(=O)CNC(=O)[C@H](CO)NC(=O)[C@H](CC(C)C)NC(=O)[C@H](CC(C)C)NC(=O)CNC(=O)[C@H](C)NC(=O)[C@H](C)NC(=O)[C@H](CCCNC(=N)N)NC(=O)CNC(=O)c1ccccc1NC(=O)CCCCNC(=O)CCCCNC(=O)[C@H](CCCCN)NC(=O)[C@H](Cc1ccc(O)cc1)NC(=O)[C@@H](N)Cc1c[nH]c2ccccc12)C(N)=O [compound 10] (H-WYK[Ava][Ava][2Abz]GRAAGLLSGL-NH2),–,–,–,–,4.7,8000
CC(C)C[C@H](NC(=O)CNC(=O)[C@H](CO)NC(=O)[C@H](CC(C)C)NC(=O)[C@H](CC(C)C)NC(=O)CNC(=O)[C@H](C)NC(=O)[C@H](C)NC(=O)[C@H](CCCNC(=N)N)NC(=O)CNC(=O)CCCCNC(=O)CCCCNC(=O)c1cccc(NC(=O)[C@H](CCCCN)NC(=O)[C@H](Cc2ccc(O)cc2)NC(=O)[C@@H](N)Cc2c[nH]c3ccccc23)c1)C(N)=O [compound 17] (H-WYK[3Abz][Ava][Ava]GRAAGLLSGL-NH2),–,–,–,–,0.34,33
CC(C)C[C@H](NC(=O)CNC(=O)[C@H](CO)NC(=O)[C@H](CC(C)C)NC(=O)[C@H](CC(C)C)NC(=O)CNC(=O)[C@H](C)NC(=O)[C@H](C)NC(=O)[C@H](CCCNC(=N)N)NC(=O)CNC(=O)CCCCNC(=O)c1cccc(NC(=O)CCCCNC(=O)[C@H](CCCCN)NC(=O)[C@H](Cc2ccc(O)cc2)NC(=O)[C@@H](N)Cc2c[nH]c3ccccc23)c1)C(N)=O [compound 14] (H-WYK[Ava][3Abz][Ava]GRAAGLLSGL-NH2),–,–,–,–,0.19,16
CC(C)C[C@H](NC(=O)CNC(=O)[C@H](CO)NC(=O)[C@H](CC(C)C)NC(=O)[C@H](CC(C)C)NC(=O)CNC(=O)[C@H](C)NC(=O)[C@H](C)NC(=O)[C@H](CCCNC(=N)N)NC(=O)CNC(=O)c1ccc(NC(=O)CCCCNC(=O)CCCCNC(=O)[C@H](CCCCN)NC(=O)[C@H](Cc2ccc(O)cc2)NC(=O)[C@@H](N)Cc2c[nH]c3ccccc23)cc1)C(N)=O [compound 12] (H-WYK[Ava][Ava][4Abz]GRAAGLLSGL-NH2),–,–,–,–,0.35,5.1

# Further lines, with some results ahead:
"IC50 [1, 7] [nM]","IC50 [2, 8] [nM]",EC50 [3] [nM],EC50 [4] [nM],Compound,"IC50 [1, 5] [nM]","IC50 [2, 6] [nM]"
> 100,2600,–,–,CC(C)C[C@H](NC(=O)CNC(=O)[C@H](CO)NC(=O)[C@H](CC(C)C)NC(=O)[C@H](CC(C)C)NC(=O)CNC(=O)[C@H](C)NC(=O)[C@H](C)NC(=O)[C@H](CCCNC(=N)N)NC(=O)CNC(=O)CCCCNC(=O)CCCCNC(=O)CCCCNC(=O)CCCCNC(=O)CCCCNC(=O)[C@H](CCCCN)NC(=O)[C@H](Cc1ccc(O)cc1)NC(=O)[C@@H](N)Cc1c[nH]c2ccccc12)C(N)=O [compound 9] (H-WYK[Ava][Ava][Ava][Ava][Ava]GRAAGLLSGL-NH2),–,–
0.55,310,280,1.7,CC(C)C[C@H](NC(=O)CNC(=O)[C@H](CO)NC(=O)[C@H](CC(C)C)NC(=O)[C@H](CC(C)C)NC(=O)CNC(=O)[C@H](C)NC(=O)[C@H](C)NC(=O)[C@H](CCCNC(=N)N)NC(=O)CNC(=O)CCCCNC(=O)[C@H](CCCCN)NC(=O)[C@H](Cc1ccc(O)cc1)NC(=O)[C@@H](N)Cc1c[nH]c2ccccc12)C(N)=O [compound 5] (H-WYK[Ava]GRAAGLLSGL-NH2),–,–
0.09,260,77,0.48,CC(C)C[C@H](NC(=O)CNC(=O)[C@H](CO)NC(=O)[C@H](CC(C)C)NC(=O)[C@H](CC(C)C)NC(=O)CNC(=O)[C@H](C)NC(=O)[C@H](C)NC(=O)[C@H](CCCNC(=N)N)NC(=O)CNC(=O)CCCCNC(=O)CCCCNC(=O)CCCCNC(=O)[C@H](CCCCN)NC(=O)[C@H](Cc1ccc(O)cc1)NC(=O)[C@@H](N)Cc1c[nH]c2ccccc12)C(N)=O [compound 7] (H-WYK[Ava][Ava][Ava]GRAAGLLSGL-NH2),–,–
